Assay results published in patent publication US9051418B2, “Glucose-PEG conjugates for reducing glucose transport into a cell” (Agency for Science, Technology and Research, priority 2008, dated 2015).
“Also recorded” adds a separate entry of the source.

What was measured:
[1] = tested on: MCF-7 cells; experiment: Fluorescence imaging of cells labeled with GPB; assay type: cell-based, human; settings: MCF-7, live fluorescence imaging after incubation and PBS wash
Experimental: They were washed with PBS before fluorescence imaging. Scale bar=500 μm. The MCF-7 cells were seeded on a 6-well plate at least 24 h prior to imaging. […] The cells were washed with PBS (without calcium and magnesium) thrice. Live imaging was performed with fluorescence microscopy. Metamorph (Molecular Devices, USA) and Image J (freeware from NIH, USA) were used for image capturing and processing.

[2] = tested on: MCF-7 cells; experiment: MTT cell viability assay, MCF-7 cells cultured 7 days with modified glucose; settings: MCF-7, different concentrations
Experimental: MCF-7 cells were seeded onto 96-well plates at least 24 h prior to the experiment. […] MTT assay was performed to assess the cell viability. […] Cell viability was normalized with that of the control cells. […] The cells were treated as described in FIG. 3, followed by the MTT assay. […] MTT assay was carried out to monitor the viability of the cells. Values obtained for the cells without any treatments were kept as 100%. Different cancer cell lines, MCF-7 (breast cancer), H1299 (lung cancer), HepG2 (liver cancer), DU145 (prostate cancer), Caco2 (colon cancer) and AGS (gastric cancer) were obtained from American Type Culture Collection (ATCC). Normal breast epithelial cell line (MCF-10A) was used for comparison. The cells were maintained in the growth medium as described by ATCC. Approximately 10,000 cells were seeded onto a 96-well plate. Modified glucose compounds were added to the cells after 24 h of seeding. The cells were further cultured in the presence of the modified glucose compounds for up to 7 days. The medium was changed everyday along with the specified concentration of modified glucose. […] MTT assay was performed using the TACS™ MTT cell proliferation assay kit (Trevigen Inc, Md., USA). Briefly, after treatment of cells, 10 μl of MTT reagent was added and incubated at 37° C. for 4 h. […] The absorbance was measured in a standard plate reader at 570 nm.

[3] = target: T1, GLUT1 (Homo sapiens, UniProt P11166); experiment: Glucose competition binding assay with GPB fluorescence; settings: MCF-7, 200 μM GPB, glucose 10-40 mM, 30 min, 37° C.
T1 construct: host or cells: MCF-7 human breast cancer cells
T1 sequence (P11166 1-492): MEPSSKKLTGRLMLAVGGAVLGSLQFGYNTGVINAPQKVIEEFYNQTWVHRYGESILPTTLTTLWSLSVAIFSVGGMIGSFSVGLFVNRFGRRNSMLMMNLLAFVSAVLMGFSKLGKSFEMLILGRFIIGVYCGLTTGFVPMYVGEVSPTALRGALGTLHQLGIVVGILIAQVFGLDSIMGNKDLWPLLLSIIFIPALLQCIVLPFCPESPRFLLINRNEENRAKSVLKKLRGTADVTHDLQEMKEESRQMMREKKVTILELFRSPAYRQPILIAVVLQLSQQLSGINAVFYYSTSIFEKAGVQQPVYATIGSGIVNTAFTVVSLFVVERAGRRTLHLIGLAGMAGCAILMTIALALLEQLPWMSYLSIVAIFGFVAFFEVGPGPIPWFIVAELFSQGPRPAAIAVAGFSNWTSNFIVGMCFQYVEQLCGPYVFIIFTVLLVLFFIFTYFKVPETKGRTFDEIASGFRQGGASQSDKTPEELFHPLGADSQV
Experimental: FIG. 6: Competition assay. […] The cells were incubated for 30 min at 37° C. The cells were washed with PBS, and the total intensity was measured using a plate reader.
FIG. 10: Binding of GBP to GLUT1. […] After 30 minutes the fluorescence intensity was measured using a plate reader.
The medium was removed and the cells were washed briefly with PBS twice. The fluorescence intensity was measured with an excitation of 488 nm and an emission of 522 nm. The fluorescence intensity was normalized by that of the control cells.
A glucose competition assay was carried out to confirm that the modified glucose-PEG is binding to the GLUT1 receptors. Increasing concentrations of un-modified glucose were used. […] After 30 minutes the fluorescence intensity was measured using a plate reader.

[4] = tested on: tumor; settings: animal studies, supplemental 2-DG; cited from earlier work
[5] = tested on: SkBr3 (human breast cancer) cell line; settings: SkBr3, concentration of 4 mM; cited from earlier work
[6] = tested on: H1299; settings: H1299, 200 μM, 3 days
Experimental: Human lung cancer cells (H1299) were treated for 3 days with 200 μM of modified glucose (GBrP). Control cells were prepared without treatment. Total RNA was extracted from the cells and reverse transcribed. A PCR array containing primers to identify the apoptotic pathway was used to identify the apoptosis pathway between control and treated cells in lung cancer cells.
Gene expression analysis was carried out to understand the apoptosis pathway during the modified glucose mediated cell death.

[7] = tested on: different cancer cell lines; settings: 200 μM, MTT, Table 1
Experimental: MTT assay was carried out to monitor the viability of the cells. Values obtained for the cells without any treatments were kept as 100%.
Different cancer cell lines, MCF-7 (breast cancer), H1299 (lung cancer), HepG2 (liver cancer), DU145 (prostate cancer), Caco2 (colon cancer) and AGS (gastric cancer) were obtained from American Type Culture Collection (ATCC). Normal breast epithelial cell line (MCF-10A) was used for comparison. The cells were maintained in the growth medium as described by ATCC. Approximately 10,000 cells were seeded onto a 96-well plate. Modified glucose compounds were added to the cells after 24 h of seeding. The cells were further cultured in the presence of the modified glucose compounds for up to 7 days. The medium was changed everyday along with the specified concentration of modified glucose.
MTT assay was performed using the TACS™ MTT cell proliferation assay kit (Trevigen Inc, Md., USA). Briefly, after treatment of cells, 10 μl of MTT reagent was added and incubated at 37° C. for 4 h. The cells were lysed using detergent for 4 h at room temperature. The absorbance was measured in a standard plate reader at 570 nm.

[8] = tested on: DU145; settings: DU145, 200 μM, 3 days

With Glucose-PEG-BODIPY [GPB] the “localization of fluorescence in cells” value [1] was “localized on the plasma membrane of the cells”, the “dose-dependent effect on cell viability” value [2] was “gradual dose-dependent decrease in the cell viability” and the “competition of un-modified glucose with GPB binding (fluorescence intensity)” value [3] was “glucose competed with the GPB in binding to the GLUTs; also recorded: intensity of the fluorescence decreases with the increase in un-modified glucose”.

In the case of `O=CC[C@@H](O)[C@H](O)[C@H](O)CO` [2-DG, 2-deoxyglucose], the tumor growth [4] is listed as “growth of the tumor was inhibited” and the apoptotic cells [5] is listed as 50%.

In the case of glucose-conjugated branched PEG [GBrP], the “apoptosis pathway gene expression, treated vs control” value [6] was “AKT1 and ABL1 were down regulated while APAF1 and TP53BP were upregulated”, the “inhibition of viability of various different cancer cell lines” value [7] was “significantly inhibit the viability” and the “apoptosis pathway gene expression, treated vs control” value [8] was “AKT1 and ABL1 were down regulated while APAF1 and TP53BP were upregulated”.
